These results are taken from patent US20220218679A1, “NOVEL COMPOUNDS AND PHARMACEUTICAL COMPOSITIONS THEREOF FOR THE TREATMENT OF INFLAMMATORY DISORDERS” (Galapagos NV, priority 2019, published 2022).

≈ marks a conversion by molar mass, not a printed value. Read-outs that look alike come from different tables or passages of the source.

Series [1] in a line: Thermodynamic solubility. It counts as physicochemical. Particulars: 37 °C, thermodynamic from solid. The source says: 4.2. Thermodynamic Solubility
Poor solubility, in particular poor thermodynamic solubility can limit the absorption of compounds from the gastrointestinal tract which in turn may reduce oral bioavailability.
Thermodynamic solubility investigates the solubility of a compound as a saturated solution in equilibrium, by opposition to kinetic solubility, which measures the solubility of a metastable solution where supersaturation may occur and provide over estimation of the actual solubility of the compound. (Klein, 2010)
4.2.2. Thermodynamic Solubility—Protocol 2
In a 8 mL glass vial, 1-2 mg of dry matter of compound were added and stirred with the suitable buffers (Fed State Simulated Intestine Fluid, FeSSIF, or Fasted State Simulated Intestine Fluid, FaSSIF, or Fasted State Simulated Gastric Fluid, FaSSGF, or phosphate buffer pH 7.4) for 24 h at r.t. (for the buffer pH 7.4) or 37° C. (for the GI fluids). The concentration of the mixture was 1 mg/mL.
A volume of 1000 μL were sampled, centrifuged for 10 min at 10 000 rpm and 500 μL of the supernatant were filtered on captiva plate. The samples were diluted in duplicates in DMSO (F100 and F10). Then, a final dilution (F100) in 80/20 H2O/MeCN containing the internal standard (warfarin) was used for LCMS-MS analysis.
A standard curve was made starting from a 40,000 ng/mL stock in DMSO, freshly prepared from dry matter. Then, successive concentrations at 15,000, 11,000, 6,000, 2,500, 1,000, 375, 150 and 75 ng/mL in DMSO were prepared.
Three quality control samples were made: one of 10,000, 1,500 and 200 ng/mL in DMSO, also starting from the DMSO working stock solution at 40,000 ng/mL.
The standard curve and quality controls were diluted a F100 in 80/20 H2O/MeCN (with internal standard) and analyzed on LC/MS-MS (API4000 or API5500).
The samples were analyzed on LC-MS with a flow rate of 0.6 mL/min. The mobile phase A was 0.1% formic acid in water and the mobile phase B was 0.1% formic acid in 90% MeCN and 10% of H2O. The sample was run under positive or negative ion spray on Pursuit C18—5 μm (2.0×20 mm) column, from Agilent.
The ratio analyte/internal standard peaks areas of the standard curve were plotted in a graph and a linear or polynomial of the second order equation was used to calculate the unknown concentrations of the test compound.
Solubility values were reported in μg/mL.

Series [2] concerns MC903 induced atopic dermatitis in mice. Put plainly: Murine prophylactic model of atopic dermatitis induced by topical application of MC903. The settings on record: 10 mg/kg b.i.d., versus disease vehicle group. It counts as in vivo, BALB/cN mice or CD1/Swiss mice. The source says:
5.5. Murine Prophylactic Model of Atopic Dermatitis Induced by Topical Application of MC903
Methylcellulose 0.5% was obtained from VWR (cat no. AX021233). MC903 (calcipotriol) was obtained from Tocris Bioscience (cat no. 2700/50). ProSense® 680 was obtained from PerkinElmer (cat no. NEV10003). RNAlater® was obtained from Ambion (cat no. AM7021). Imalgene® 1000 (Merial) and Rompun® 2% (Bayer) were obtained from Centravet (cat no. IMA004-6827812 and ROM001-6835444).
BALB/cN mice (female, 18-20 g body weight) or CD1/Swiss mice (female, 24-26 g body weight) were obtained from Janvier Labs (France). Mice were kept on a 12 h light/dark cycle (07:00-19:00). Temperature was maintained at 22±2° C., food and water were provided ad libitum. […]
The thickness of both ears was measured (after anaesthesia induced by isoflurane inhalation) at initiation of the study, every other day and at sacrifice using a thickness gage (Mitutoyo, Absolute Digimatic, 547-321).
Body weight was assessed at initiation of the study, every other day and at sacrifice.
On D4, mice from all groups receive ProSense® 680 probe (0.8 nmol/10 g, IP). […] Granulocyte infiltration was measured using in vivo molecular imaging (Bruker In-Vivo Xtreme imaging system, excitation wavelength: 630 nm, emission wavelength: 700 nm, acquisition time: 5 seconds). […]
For each readout, mean and sem were calculated. […]

The mark [3] stands for this setting: Fasted State Simulated Intestine Fluid (FaSSIF), fassif, Fasted State Simulated Intestine Fluid, read-out: Tsol FaSSIF.
The mark [4] stands for this setting: Fed State Simulated Intestine Fluid (FeSSIF), fessif, Fed State Simulated Intestine Fluid, read-out: Tsol FeSSIF.

In the case of `COc1cn2nc(CCC(C)(C)O)cc2cc1NC(=O)c1cccn(C2CC2)c1=O` [Compound 1, 1-cyclopropyl-N-[2-(3-hydroxy-3-methylbutyl)-6-methoxypyrazolo[1,5-a]pyridin-5-yl]-2-oxopyridine-3-carboxamide], the solubility thermodynamic at 24 h in series [1] (setting [3]) was 11.3 µg/mL (≈ 27.5 µM); in series [1] (setting [4]), 83.4 µg/mL (≈ 203 µM). The “effect on ear thickening at D8” value in series [2] is “statistically significant effect”. Further, the “effect on granulocyte infiltrate” value in series [2] is given as “statistically significant effect”.

As to `[2H]C([2H])([2H])Oc1cn2nc(CCC(C)(C)O)cc2cc1NC(=O)c1cccn(C2CC2)c1=O` [Compound 24, 1-cyclopropyl-N-[2-(3-hydroxy-3-methylbutyl)-6-(trideuteriomethoxy)pyrazolo[1,5-a]pyridin-5-yl]-2-oxopyridine-3-carboxamide], the solubility thermodynamic at 24 h was 200 µg/mL (≈ 484 µM) in series [1] (Fasted State Simulated Gastric Fluid (FaSSGF), fassgf or other biorelevant, Fasted State Simulated Gastric Fluid, read-out: Tsol FaSSGF); 28.5 µg/mL (≈ 68.9 µM) in series [1] (setting [3]); 105 µg/mL (≈ 254 µM) in series [1] (setting [4]).
